# Species: Rattus norvegicus
# Assay: Open TG-GATES - Regimen: Daily Repeat
# Assay type: toxicity, organism-based, Sprague-Dawley
# Design: regimen Daily Repeat, gender Male, age 6 weeks
# Settings: in vivo, po, 30 mg/kg, route gavage, dose level Middle; for APTT / Bas / Eos / Fbg / Hb / Ht / Lym / MCH / MCHC / MCV / Mono / Neu / PT / Plat / RBC / Ret / WBC: tissue Blood; for KIDNEY_L / KIDNEY_R / KIDNEY_TOTAL: tissue Kidney; for LIVER: tissue Liver; for A/G / ALP / ALT / AST / BUN / CRE / Ca / Cl / DBIL / GLC / IP / K / LDH / Na / PL / RALB / TBIL / TC / TG / TP / gamma-GTP: tissue Plasma
compound,measurement,setting,value
CCC1(c2ccccc2)C(=O)NC(=O)NC1=O [PHENOBARBITAL],TERMINAL_BW,"72 h, time 3 day",222.1 g
same,APTT,"72 h, time 3 day",15.2 s
same,Bas,"72 h, time 3 day",0%
same,Eos,"72 h, time 3 day",0.6%
same,Fbg,"72 h, time 3 day",228.4 mg/dL
same,Hb,"72 h, time 3 day",13.5 g/dL
same,Ht,"72 h, time 3 day",40.1%
same,Lym,"72 h, time 3 day",81.2%
same,MCH,"72 h, time 3 day",21.8 pg
same,MCHC,"72 h, time 3 day",33.7%
same,MCV,"72 h, time 3 day",64.9 fL
same,Mono,"72 h, time 3 day",6.4%
same,Neu,"72 h, time 3 day",12%
same,PT,"72 h, time 3 day",11.2 s
same,Plat,"72 h, time 3 day",118.8 x10_4/uL
same,RBC,"72 h, time 3 day",618 x10_4/ul
same,Ret,"72 h, time 3 day",7.6%
same,WBC,"72 h, time 3 day",95.1 x10_2/uL
same,KIDNEY_L,"72 h, time 3 day",0.9 g
same,KIDNEY_R,"72 h, time 3 day",0.9 g
same,KIDNEY_TOTAL,"72 h, time 3 day",1.9 g
same,LIVER,"72 h, time 3 day",12.5 g
same,A/G,"72 h, time 3 day",1.6
same,ALP,"72 h, time 3 day",932 IU/L
same,ALT,"72 h, time 3 day",36.6 IU/L
same,AST,"72 h, time 3 day",63.2 IU/L
same,BUN,"72 h, time 3 day",17.2 mg/dL
same,CRE,"72 h, time 3 day",0.6 mg/dL
same,Ca,"72 h, time 3 day",11.2 mg/dL
same,Cl,"72 h, time 3 day",105.2 meq/L
same,DBIL,"72 h, time 3 day",0.026 mg/dL
same,GLC,"72 h, time 3 day",201 mg/dL
same,IP,"72 h, time 3 day",9.2 mg/dL
same,K,"72 h, time 3 day",4.5 meq/L
same,LDH,"72 h, time 3 day",128.8 IU/L
same,Na,"72 h, time 3 day",139.8 meq/L
same,PL,"72 h, time 3 day",168.6 mg/dL
same,RALB,"72 h, time 3 day",3.6 g/dL
same,TBIL,"72 h, time 3 day",0.4 mg/dL
same,TC,"72 h, time 3 day",92 mg/dL
same,TG,"72 h, time 3 day",116.4 mg/dL
same,TP,"72 h, time 3 day",5.9 g/dL
same,gamma-GTP,"72 h, time 3 day",1.2 IU/L
same,TERMINAL_BW,"[…], time 7 day",261.6 g
same,TERMINAL_BW,"[…], time 14 day",299.2 g
same,TERMINAL_BW,"[…], time 28 day",388.6 g
same,APTT,"[…], time 7 day",15.6 s
same,Bas,"[…], time 7 day",0%
same,Eos,"[…], time 7 day",0.2%
same,Fbg,"[…], time 7 day",242.4 mg/dL
same,Hb,"[…], time 7 day",13.6 g/dL
same,Ht,"[…], time 7 day",40.8%
same,Lym,"[…], time 7 day",80.8%
same,MCH,"[…], time 7 day",21.6 pg
same,MCHC,"[…], time 7 day",33.3%
same,MCV,"[…], time 7 day",64.9 fL
same,Mono,"[…], time 7 day",6.6%
same,Neu,"[…], time 7 day",12%
same,PT,"[…], time 7 day",11.6 s
same,Plat,"[…], time 7 day",120.5 x10_4/uL
same,RBC,"[…], time 7 day",629.6 x10_4/ul
same,Ret,"[…], time 7 day",6.9%
same,WBC,"[…], time 7 day",121 x10_2/uL
same,APTT,"[…], time 14 day",17.6 s
same,Bas,"[…], time 14 day",0%
same,Eos,"[…], time 14 day",0%
same,Fbg,"[…], time 14 day",229 mg/dL
same,Hb,"[…], time 14 day",14.6 g/dL
same,Ht,"[…], time 14 day",44.3%
same,Lym,"[…], time 14 day",88%
same,MCH,"[…], time 14 day",20.3 pg
same,MCHC,"[…], time 14 day",33%
same,MCV,"[…], time 14 day",61.5 fL
same,Mono,"[…], time 14 day",3%
same,Neu,"[…], time 14 day",8.4%
same,PT,"[…], time 14 day",11.6 s
same,Plat,"[…], time 14 day",114.8 x10_4/uL
same,RBC,"[…], time 14 day",720.6 x10_4/ul
same,Ret,"[…], time 14 day",4.8%
same,WBC,"[…], time 14 day",130.2 x10_2/uL
same,APTT,"[…], time 28 day",18.2 s
same,Bas,"[…], time 28 day",0%
same,Eos,"[…], time 28 day",1%
same,Fbg,"[…], time 28 day",215 mg/dL
same,Hb,"[…], time 28 day",15.1 g/dL
same,Ht,"[…], time 28 day",45%
same,Lym,"[…], time 28 day",82.6%
same,MCH,"[…], time 28 day",19.5 pg
same,MCHC,"[…], time 28 day",33.6%
same,MCV,"[…], time 28 day",58 fL
same,Mono,"[…], time 28 day",5.2%
same,Neu,"[…], time 28 day",11.6%
same,PT,"[…], time 28 day",12.2 s
same,Plat,"[…], time 28 day",103 x10_4/uL
same,RBC,"[…], time 28 day",777.2 x10_4/ul
same,Ret,"[…], time 28 day",3%
same,WBC,"[…], time 28 day",150 x10_2/uL
same,KIDNEY_L,"[…], time 7 day",1.1 g
same,KIDNEY_R,"[…], time 7 day",1.1 g
same,KIDNEY_TOTAL,"[…], time 7 day",2.2 g
same,KIDNEY_L,"[…], time 14 day",1.2 g
same,KIDNEY_R,"[…], time 14 day",1.2 g
same,KIDNEY_TOTAL,"[…], time 14 day",2.3 g
same,KIDNEY_L,"[…], time 28 day",1.3 g
same,KIDNEY_R,"[…], time 28 day",1.3 g
same,KIDNEY_TOTAL,"[…], time 28 day",2.7 g
same,LIVER,"[…], time 7 day",14.7 g
same,LIVER,"[…], time 14 day",15.9 g
same,LIVER,"[…], time 28 day",18 g
same,A/G,"[…], time 7 day",1.5
same,ALP,"[…], time 7 day",888 IU/L
same,ALT,"[…], time 7 day",29.8 IU/L
same,AST,"[…], time 7 day",58.4 IU/L
same,BUN,"[…], time 7 day",18.8 mg/dL
same,CRE,"[…], time 7 day",0.6 mg/dL
same,Ca,"[…], time 7 day",11 mg/dL
same,Cl,"[…], time 7 day",106.4 meq/L
same,DBIL,"[…], time 7 day",0.042 mg/dL
same,GLC,"[…], time 7 day",204 mg/dL
same,IP,"[…], time 7 day",8.8 mg/dL
same,K,"[…], time 7 day",4.6 meq/L
same,LDH,"[…], time 7 day",95 IU/L
same,Na,"[…], time 7 day",140.8 meq/L
same,PL,"[…], time 7 day",157 mg/dL
same,RALB,"[…], time 7 day",3.6 g/dL
same,TBIL,"[…], time 7 day",0.4 mg/dL
same,TC,"[…], time 7 day",85 mg/dL
same,TG,"[…], time 7 day",115.2 mg/dL
same,TP,"[…], time 7 day",6 g/dL
same,gamma-GTP,"[…], time 7 day",1.2 IU/L
same,A/G,"[…], time 14 day",1.4
same,ALP,"[…], time 14 day",718.2 IU/L
same,ALT,"[…], time 14 day",27.6 IU/L
same,AST,"[…], time 14 day",61.8 IU/L
same,BUN,"[…], time 14 day",19.6 mg/dL
same,CRE,"[…], time 14 day",0.6 mg/dL
same,Ca,"[…], time 14 day",10.9 mg/dL
same,Cl,"[…], time 14 day",107 meq/L
same,DBIL,"[…], time 14 day",0.008 mg/dL
same,GLC,"[…], time 14 day",205.8 mg/dL
same,IP,"[…], time 14 day",8.5 mg/dL
same,K,"[…], time 14 day",4.2 meq/L
same,LDH,"[…], time 14 day",84.6 IU/L
same,Na,"[…], time 14 day",142 meq/L
same,PL,"[…], time 14 day",148.4 mg/dL
same,RALB,"[…], time 14 day",3.8 g/dL
same,TBIL,"[…], time 14 day",0.3 mg/dL
same,TC,"[…], time 14 day",79.2 mg/dL
same,TG,"[…], time 14 day",116.2 mg/dL
same,TP,"[…], time 14 day",6.5 g/dL
same,gamma-GTP,"[…], time 14 day",1 IU/L
same,A/G,"[…], time 28 day",1.5
same,ALP,"[…], time 28 day",631.8 IU/L
same,ALT,"[…], time 28 day",32.2 IU/L
same,AST,"[…], time 28 day",58.6 IU/L
same,BUN,"[…], time 28 day",20.6 mg/dL
same,CRE,"[…], time 28 day",0.4 mg/dL
same,Ca,"[…], time 28 day",10.4 mg/dL
same,Cl,"[…], time 28 day",108 meq/L
same,DBIL,"[…], time 28 day",0.03 mg/dL
same,GLC,"[…], time 28 day",194.4 mg/dL
same,IP,"[…], time 28 day",7.5 mg/dL
same,K,"[…], time 28 day",4.8 meq/L
same,LDH,"[…], time 28 day",70 IU/L
same,Na,"[…], time 28 day",139.6 meq/L
same,PL,"[…], time 28 day",143.4 mg/dL
same,RALB,"[…], time 28 day",3.8 g/dL
same,TBIL,"[…], time 28 day",0.4 mg/dL
same,TC,"[…], time 28 day",76.8 mg/dL
same,TG,"[…], time 28 day",88.8 mg/dL
same,TP,"[…], time 28 day",6.3 g/dL
same,gamma-GTP,"[…], time 28 day",2.6 IU/L

# Source: ChEMBL document CHEMBL3885861, “Open TG-GATES”
